Experiments:
in vitro = details: 37 C, followed for 720 min; for half-life at 10 µg/ml: Sprague-Dawley, rat, heparin-stabilised rat plasma, T½ in rat plasma; for T½ in rat plasma / kobs (degradation rate): heparin stabilised rat plasma
Experimental: The degradation of the two test compounds and in heparin stabilised rat (Sprague-Dawley) plasma was followed by the combination of solid phase extraction and LC-MS. The degradation was followed for 720 minutes in plasma.
Blank rat plasma in sodium heparin (5000 units/mL) were obtained from Harlan Sera Lab Ltd. (Loughborough, UK).
The LC-MS analysis was performed on an HP 1100 instrument consisting of an on-line degasser, a quaternary gradient pump, an auto sampler, a column oven, Hewlett Packard (Wilmington. Del., U.S.A.) in combination with a Quattro Ultima mass spectrometer from Micromass (Altrincham, UK). Both the LC and MS were controlled by MassLynx 3.3 software. The LC separations prior to MS detection were performed on a Vydac 218MS52 (2.1×250 mm) column (Hesperia, Calif., U.S.A.).
The initial plasma volume was 1000 μl (37° C.). From the initial plasma volume, 100 μl was transferred to a 0.75 ml HPLC vial (used as blank), mixed with 560 μl extraction solution (MeCN:0.18 M ammonium carbonate pH 9.5 (6:94 v/v), 4 C) and extracted by Solid Phase Extraction using ASPEC XL4 Robot. A volume of 100 μl stock solution was added to the remaining 900 μl plasma, mixed thoroughly and incubated at 37 C (corresponding to an initial concentration of 10 μg of the test compounds/ml). At each time point (0.2, 60, 120, 180, 240, 360, 480, 662 and 720 min., respectively) 100 μl of the drug containing plasma was collected, mixed with 560 μl ice cold extraction solution and immediately extracted by SPE as described above. The extracted plasma samples were analysed by LC-MS.
The samples were kept at 18° C. in the autosampler tray prior to injection of 10 μl. The separations were performed at 30° C. on a Vydac 218MS52 (2.1×250 mm) LC column using a linear gradient from 15 to 50% B within 14 min. at a flow rate of 250 μl/min 0.1% formic acid in water was used as mobile phase A and 0.1% formic acid in MeCN as mobile phase B. Compound 4 and Compound (iii) were detected by single ion recording (SIR) using the 6 H+(m/z=676.7) and 4 H+(m/z=822.1) ion species, respectively. The cone voltage for the analysis of compound (iii) and Compound 4 was set to 100 and 70 V respectively. […] The degradation of the two compounds were followed for 720 min and the results were plotted as the natural logarithm of the peak area vs. time.

[1] = In vivo pharmacokinetics after i.v. administration to rabbits; details: iv; for half-life: New Zealand White, rabbit, in vivo, 1000 nmol/kg, iv 1000 nmol/kg, mean
Experimental: In order to establish whether this effect is sustained in vivo, the pharmacokinetic parameters of the two compounds are examined in rabbits.
Compound 4 (batch No. ZP 7.97-5-F, 4053 g/mol) and Compound (iii) (batch No. ZP 7.73-2-G, 3854 g/mol) were synthesised in-house using the Fmoc strategy. […] The peptides were dissolved in pyrogen free isotonic saline and both peptides were administered i.v. to rabbits and rats using a dose of 1000 nmol/kg.
Fifteen New Zealand White rabbits weighing 2.5 to 3.0 kg were used for the experiment. On the day of the experiment, the rabbits were anaesthetised with Hypnorm® i.m. followed by Dormicum® i.v., Catheters were inserted into the femoral vein and artery for i.v. administration of drugs and arterial blood sampling. The rabbits stayed unconscious throughout the experiment.
Blood samples were collected at t−1, 3, 5, 10, 15, 20, 30, 40, 60, 90, 120, 150, 180, and 240 min. The blood was collected in EDTA containing ice-chilled tubes and immediately centrifuged at 4 C for 5 min (20.000×g). Plasma (250 μl) was transferred to ice-chilled 0.75 ml PLC vials containing 250 μl extraction solution (MeCN: 0.18 M Ammonium Carbonate pH 9.5, 10:90 v/v). The plasma samples were stored at −20 C until SPE and LC/MS analysis.
The drug containing plasma samples (400 μl) are loaded onto OASIS™ HLB (Compound 4) or ISOLUTE™ (Compound (iii)) solid phase extraction columns preconditioned with 950 μl MeCN followed by 950 μl water. The columns are washed with 950 μl 2% TFA in water followed by an equal volume of 2% TFA in MeCN:water (20:78 v/v). The analytes are eluted with 500 μl 2% TFA in MeCN:water (60:38 v/v) and analysed by LC/MS.
The samples were kept at 18 C in the auto sampler tray prior to injection of 20 to 50 μl onto the LC column (Vydac 218MS52 (2.1×250 mm). The separations were performed at 30° C. using a flow rate of 250 μl/min and a gradient according to the table below. Both the test compound and the reference drug are detected by single ion recording (SIR) using the m/z=676.7 and the m/z=1095.2 and 821.8 ion species, respectively. All instrument conditions were controlled by MassLynx software ver. 3.3 software.
The plasma samples were analysed as described under materials and methods and the plasma concentration (Cpl) plotted versus time in a semi log diagram. The plasma concentration were followed for three hours in rabbits, whereas the limited blood volume of rats restricted the blood sampling in this specie to one hour. The Cpl vs. time curves from the individual rabbits were fitted to a two-compartment open model (figure not shown) using 1/y^2 weighted least squares in WinNonlin 3.1 (Pharsight Corp. (Mountain View, Calif.)).
Table 5: The pharmacokinetic constants were obtained from rabbits when the Cpl vs. time curves was fitted mathematically. The compounds were administered iv in a concentration of 1000 nmol/kg. T1/2 values are given in minutes (min) for the a and P phase.

SMILES | half-life at 10 µg/ml (in vitro) [min] | T½ in rat plasma (in vitro) [min] | kobs (degradation rate) (in vitro) [min⁻¹] | half-life ([1]; T1/2, α) [min] | half-life ([1]; T1/2, β) [min] | T½ value relative to the unconjugated peptide ([1]; Table 5)
CC[C@H](C)[C@H](NC(=O)[C@H](Cc1ccccc1)NC(=O)[C@H](CCC(=O)O)NC(=O)[C@H](CCCCN)NC(=O)[C@H](C)NC(=O)[C@H](C)NC(=O)[C@H](CCC(N)=O)NC(=O)CNC(=O)[C@H](CCC(=O)O)NC(=O)[C@H](CC(C)C)NC(=O)[C@H](Cc1ccc(O)cc1)NC(=O)[C@H](CO)NC(=O)[C@H](CO)NC(=O)[C@@H](NC(=O)[C@H](CC(=O)O)NC(=O)[C@H](CO)NC(=O)[C@@H](NC(=O)[C@H](Cc1ccccc1)NC(=O)[C@@H](NC(=O)CNC(=O)[C@H](CCC(=O)O)NC(=O)CNC(=O)[C@@H](N)Cc1c[nH]cn1)[C@@H](C)O)[C@@H](C)O)C(C)C)C(=O)N[C@@H](C)C(=O)N[C@@H](Cc1c[nH]c2ccccc12)C(=O)N[C@@H](CC(C)C)C(=O)N[C@H](C(=O)N[C@@H](CCCCN)C(=O)NCC(=O)N[C@@H](CCCNC(=N)N)C(=O)N[C@@H](CCCCN)C(=O)N[C@@H](CCCCN)C(=O)N[C@@H](CCCCN)C(=O)N[C@@H](CCCCN)C(=O)N[C@@H](CCCCN)C(=O)N[C@@H](CCCCN)C(N)=O)C(C)C [Compound 4] | 466 | 466.1 | 0.0015 | 6.8 | 28 | approximately three times
CC[C@H](C)[C@H](NC(=O)[C@H](Cc1ccccc1)NC(=O)[C@H](CCC(=O)O)NC(=O)[C@H](CCCCN)NC(=O)[C@H](C)NC(=O)[C@H](C)NC(=O)[C@H](CCC(N)=O)NC(=O)CNC(=O)[C@H](CCC(=O)O)NC(=O)[C@H](CC(C)C)NC(=O)[C@H](Cc1ccc(O)cc1)NC(=O)[C@H](CO)NC(=O)[C@H](CO)NC(=O)[C@@H](NC(=O)[C@H](CC(=O)O)NC(=O)[C@H](CO)NC(=O)[C@@H](NC(=O)[C@H](Cc1ccccc1)NC(=O)[C@@H](NC(=O)CNC(=O)[C@H](CCC(=O)O)NC(=O)CNC(=O)[C@@H](N)Cc1cnc[nH]1)[C@@H](C)O)[C@@H](C)O)C(C)C)C(=O)N[C@@H](C)C(=O)N[C@@H](Cc1c[nH]c2ccccc12)C(=O)N[C@@H](CC(C)C)C(=O)N[C@H](C(=O)N[C@@H](CCCCN)C(=O)NCC(=O)N[C@@H](CCCNC(=N)N)C(N)=O)C(C)C [Compound (iii), reference compound] | 238 | 238.4 | 0.0029 | 2.3 | 10.8 | 

Reference: USRE45313E1, “Exendin variant peptides” (priority 1999, dated 2014)
